Measured values: PMC7583847 (2020)

How the values were obtained:
Assay in all cases: UV melting at 260 nm
[1] = tested on: p(dAdT)2 (DNA, polymer) AT; conditions: Na+ (sodium cacodylate, I = 0.05 M); sodium cacodylate pH 7.0; r = [compound]/[polynucleotide] = 0.2; per base
pApU (RNA, polymer) A/U = conditions: Na+ (sodium cacodylate, I = 0.05 M); sodium cacodylate pH 7.0; r = [compound]/[polynucleotide] = 0.2; per base
[2] = tested on: polyAH+-polyAH+ (RNA, polymer, protonated adenines (pH 5)) A; conditions: Na+ (sodium cacodylate, I = 0.05 M); sodium cacodylate pH 5.0; r = 0.2; second transition of poly A-poly U (free Tm 80.1 °C); per base

ΔTm [1] [°C]	ΔTm (pApU (RNA, polymer) A/U) [°C]	ΔTm [2] [°C]	SMILES
1.1 ± 0.5	3.0 ± 0.5	1.0 ± 0.5	COC(=O)C(Cc1cn(CCCCN2C=CC(=Cc3sc4ccc(Br)cc4[n+]3C)c3ccccc32)nn1)NC(=O)c1ccc(C(=O)NC(=N)N)[nH]1 (stereo not drawn)
0.3 ± 0.5	1.0 ± 0.5	1.0 ± 0.5	COC(=O)C(Cc1cn(CCCC[n+]2c(C=C3C=CN(C)c4ccccc43)sc3ccc(Br)cc32)nn1)NC(=O)c1ccc(C(=O)NC(=N)N)[nH]1 (stereo not drawn)
